Data as given in patent US6638936B1, “Benzofurylpiperazine serotonin agonists” (Eli Lilly and Company, priority 1999, dated 2003).
Where two headings read alike, the source gives them in different places.

Key:
human 5-HT2C receptor [1] = target: T1, human 5-HT2C receptor (Homo sapiens, UniProt P28335); assay: [125I]-DOI binding for determination of 5-HT2c receptor affinity; conditions: for Ki: 5-HT RECEPTOR 2c, [125I]-DOI, membranes of AV12 cells with human 5-HT2c, Ki from IC50 by Cheng-Prusoff; for affinity for the 5-HT2c receptor (in words): [125I]-DOI binding
T1 construct: expressed in transfected cells
T1 sequence (P28335 33-458): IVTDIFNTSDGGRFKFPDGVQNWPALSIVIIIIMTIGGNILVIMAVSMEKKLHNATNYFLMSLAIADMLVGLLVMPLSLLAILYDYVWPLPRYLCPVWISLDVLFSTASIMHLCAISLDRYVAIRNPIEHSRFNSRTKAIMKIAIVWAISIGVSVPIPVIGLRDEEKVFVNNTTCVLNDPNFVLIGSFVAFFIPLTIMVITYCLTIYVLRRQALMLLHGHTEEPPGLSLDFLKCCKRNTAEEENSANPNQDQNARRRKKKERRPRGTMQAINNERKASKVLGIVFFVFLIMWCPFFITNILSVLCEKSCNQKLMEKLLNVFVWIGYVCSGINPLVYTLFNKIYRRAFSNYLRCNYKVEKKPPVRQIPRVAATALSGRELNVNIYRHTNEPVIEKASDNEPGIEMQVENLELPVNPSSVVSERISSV
Procedure: The ability of the compounds of Formula I to bind to the 5-HT2c receptor subtype was measured essentially as described by Wainscott (Wainscott, et al., Journal of Pharmacology and Experimental Therapeutics, 276, 720-727 (1996)).
AV12 cells stably transfected with the human 5-HT2c receptors were grown in suspension and harvested by centrifugation, resuspended in 50 mM tris-HCl, pH 7.4, and frozen at −70° C. On the day of assay, an aliquot of cells was thawed, resuspended in 40 mL of 50 mM tris-HCl, pH 7.4, and centrifuged at 39,800×g for 10 minutes at 4° C. The resulting pellet was resuspended, incubated at 37° C. for 10 minutes to remove endogenous serotonin, then centrifuged twice more.
Briefly, prepared cell membranes were added to dilutions of compounds in a final solution containing 50 mM tris-HCl, pH 7.4, 9.75 mM MgCl2, 0.5 mM EDTA, 10 μM pargyline, 0.1% sodium ascorbate, and 0.1 nM [^125I]-DOI, with 10 μM mianserin for defining non-specific binding. All incubations (800 μL) were performed at 37° C. for 30 minutes before harvesting onto GF/C filters prewet with 0.5% polyethyleneimine, with four 1 mL washes of ice-cold 50 mM tris-HCl, pH 7.4, and counting in a gamma counter. Nonlinear regression analysis was performed on the concentration response curves using a four parameter logistic equation described by DeLean (DeLean, et al., Molecular Pharmacology, 21, 5-16 (1982)). IC50 values were converted to Ki values using the Cheng-Prusoff equation (Cheng, et al., Biochem. Pharmacol., 22, 3099-3108 (1973)).

5-HT1a receptor = target: T2, 5-HT1a receptor (Homo sapiens, UniProt P08908); assay: Serotonergic receptor binding selectivity, 5-HT1a
T2 sequence (P08908 1-422): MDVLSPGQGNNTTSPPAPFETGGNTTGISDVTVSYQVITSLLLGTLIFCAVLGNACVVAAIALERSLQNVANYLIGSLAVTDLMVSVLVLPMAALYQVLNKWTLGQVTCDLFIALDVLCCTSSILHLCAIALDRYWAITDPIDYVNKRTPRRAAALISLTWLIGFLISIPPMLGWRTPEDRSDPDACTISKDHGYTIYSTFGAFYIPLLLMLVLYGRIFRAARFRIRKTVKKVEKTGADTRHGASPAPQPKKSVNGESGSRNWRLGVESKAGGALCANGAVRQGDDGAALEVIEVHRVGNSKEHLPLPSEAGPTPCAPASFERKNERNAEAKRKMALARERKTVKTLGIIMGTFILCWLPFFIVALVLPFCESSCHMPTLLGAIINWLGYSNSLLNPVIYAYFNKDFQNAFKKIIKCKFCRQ

5-HT1b receptor = 5-HT1b receptor (Homo sapiens, UniProt P28222); assay: Serotonergic receptor binding selectivity, 5-HT1b; conditions: 5-HT RECEPTOR 1b
5-HT1d receptor = 5-HT1d receptor (Homo sapiens, UniProt P28221); assay: Serotonergic receptor binding selectivity, 5-HT1d; conditions: 5-HT RECEPTOR 1d
5-HT1e receptor = 5-HT1e receptor (Homo sapiens, UniProt P28566); assay: Serotonergic receptor binding selectivity, 5-HT1e; conditions: 5-HT RECEPTOR 1e
5-HT1f receptor = target: T3, 5-HT1f receptor (Homo sapiens, UniProt P30939); assay: Serotonergic receptor binding selectivity, 5-HT1f; conditions: 5-HT RECEPTOR 1f
T3 sequence (P30939 1-366): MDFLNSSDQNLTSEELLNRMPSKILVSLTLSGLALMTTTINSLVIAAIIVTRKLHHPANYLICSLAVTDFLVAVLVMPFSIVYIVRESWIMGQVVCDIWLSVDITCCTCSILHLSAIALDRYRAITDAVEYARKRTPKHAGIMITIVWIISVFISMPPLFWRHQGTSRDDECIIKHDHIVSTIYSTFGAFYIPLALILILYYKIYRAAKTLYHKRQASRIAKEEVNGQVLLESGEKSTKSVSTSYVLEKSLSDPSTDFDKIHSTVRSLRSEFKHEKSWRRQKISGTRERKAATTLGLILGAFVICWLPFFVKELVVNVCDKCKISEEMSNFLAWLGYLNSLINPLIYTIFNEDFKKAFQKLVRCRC

5-HT2a receptor = 5-HT2a receptor (Homo sapiens, UniProt P28223); assay: Serotonergic receptor binding selectivity, 5-HT2a
5-HT2b receptor = 5-HT2b receptor (Homo sapiens, UniProt P41595); assay: Serotonergic receptor binding selectivity, 5-HT2b
5-HT4 receptor = 5-HT4 receptor (Homo sapiens, UniProt Q13639); assay: Serotonergic receptor binding selectivity, 5-HT4; conditions: 5-HT RECEPTOR 4
5-HT6 receptor = 5-HT6 receptor (Homo sapiens, UniProt P50406); assay: Serotonergic receptor binding selectivity, 5-HT6
human 5-HT2C receptor [2] = target: T1, human 5-HT2C receptor; assay: [35S]-GTPγS binding (immunoadsorption scintillation proximity assay); format: biochemical; conditions: for functional activity at the 5-HT2c receptor (in words): [35S]-GTPγS assay
Excerpt: The 5-HT2C receptor is functionally coupled to specific G-proteins. Agonist activation of 5-HT2C G-protein-coupled receptors results in the release of GDP from the […] (G alpha q or G alpha i) of the G-protein and the subsequent binding of GTP. The binding of the stable analog [^35S]-GTPγS is an indicator of this receptor's activation.
The immunoadsorption scintillation proximity assay (ISPA) in microtiter plates of [^35S]-GTPγS binding to G alpha q or G alpha i was modified from published conditions (DeLapp et al, JPET 289 (1999) 946-955). Test compounds were dissolved in DMSO and diluted in assay buffer consisting of 50 mM Tris-HCl (pH 7.4), 10 mM MgCl2, 100 mM NaCl, and 0.2 mM EGTA. Incubations were performed over 12 test concentrations; volume was 200 μl. The incubation also contained […] and 0.25 nM [^35S]-GTPγS. Membrane homogenates from AV12 cells stably transfected with the human 5-HT2C receptor were added and the microtiter plates were incubated for 30 minutes at room temperature. The incubation was terminated by the addition of Nonidet P-40 (final concentration of 0.27%), followed by addition of rabbit polyclonal anti-G alpha q/11 antibody (0.2 μg per well), and anti-rabbit scintillation proximity assay beads (Amersham; 1.25 mg per well; final volume was 290 μl). The mixture was incubated for 3 hours at room temperature to complete the immunoadsorption of [^35S]-GTPγS bound to G alpha q/11. Microtiter plates were centrifuged briefly to pellet beads. [^35S]-GTPγS binding was quantitated by microtiter plate scintillation spectrometry (Wallac). Data analysis was performed by nonlinear regression analysis with GraphPad Prism software running on a personal computer, using 5-HT control concentration-response curves to define maximal stimulation of [^35S]-GTPγS binding.

Chain of 5-HT1e receptor (P28566 whole entry): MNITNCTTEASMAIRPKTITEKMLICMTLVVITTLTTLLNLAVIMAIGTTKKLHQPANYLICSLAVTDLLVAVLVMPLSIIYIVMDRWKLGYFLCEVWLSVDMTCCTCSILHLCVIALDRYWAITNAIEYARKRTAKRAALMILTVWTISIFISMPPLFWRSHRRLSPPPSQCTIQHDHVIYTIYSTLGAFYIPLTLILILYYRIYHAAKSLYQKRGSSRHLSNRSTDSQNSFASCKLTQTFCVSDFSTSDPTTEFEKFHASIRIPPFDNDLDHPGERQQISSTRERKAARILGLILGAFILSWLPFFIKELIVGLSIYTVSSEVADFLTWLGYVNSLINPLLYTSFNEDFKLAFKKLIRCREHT
Chain of 5-HT1d receptor (P28221 whole entry): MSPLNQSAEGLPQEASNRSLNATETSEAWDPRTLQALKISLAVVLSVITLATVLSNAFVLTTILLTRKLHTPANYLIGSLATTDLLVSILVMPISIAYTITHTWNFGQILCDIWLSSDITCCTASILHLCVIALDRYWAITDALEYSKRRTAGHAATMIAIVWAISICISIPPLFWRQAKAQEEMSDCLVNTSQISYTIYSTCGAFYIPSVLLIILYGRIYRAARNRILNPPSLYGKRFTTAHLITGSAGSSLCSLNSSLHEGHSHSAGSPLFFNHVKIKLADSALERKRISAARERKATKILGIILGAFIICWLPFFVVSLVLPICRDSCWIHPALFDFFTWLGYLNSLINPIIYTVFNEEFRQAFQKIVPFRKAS
Chain of 5-HT2a receptor (P28223 whole entry): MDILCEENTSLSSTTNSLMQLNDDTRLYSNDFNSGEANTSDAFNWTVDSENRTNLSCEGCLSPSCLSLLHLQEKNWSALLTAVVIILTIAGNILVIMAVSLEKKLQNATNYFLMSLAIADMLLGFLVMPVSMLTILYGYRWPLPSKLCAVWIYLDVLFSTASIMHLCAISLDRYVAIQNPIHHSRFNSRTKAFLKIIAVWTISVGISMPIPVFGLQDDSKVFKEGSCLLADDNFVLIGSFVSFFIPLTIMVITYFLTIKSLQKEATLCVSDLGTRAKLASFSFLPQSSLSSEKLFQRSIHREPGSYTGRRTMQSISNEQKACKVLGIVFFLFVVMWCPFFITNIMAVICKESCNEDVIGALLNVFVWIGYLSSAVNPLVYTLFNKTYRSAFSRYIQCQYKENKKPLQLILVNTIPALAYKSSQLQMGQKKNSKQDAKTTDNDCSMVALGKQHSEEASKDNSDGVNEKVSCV
Chain of 5-HT1b receptor (P28222 whole entry): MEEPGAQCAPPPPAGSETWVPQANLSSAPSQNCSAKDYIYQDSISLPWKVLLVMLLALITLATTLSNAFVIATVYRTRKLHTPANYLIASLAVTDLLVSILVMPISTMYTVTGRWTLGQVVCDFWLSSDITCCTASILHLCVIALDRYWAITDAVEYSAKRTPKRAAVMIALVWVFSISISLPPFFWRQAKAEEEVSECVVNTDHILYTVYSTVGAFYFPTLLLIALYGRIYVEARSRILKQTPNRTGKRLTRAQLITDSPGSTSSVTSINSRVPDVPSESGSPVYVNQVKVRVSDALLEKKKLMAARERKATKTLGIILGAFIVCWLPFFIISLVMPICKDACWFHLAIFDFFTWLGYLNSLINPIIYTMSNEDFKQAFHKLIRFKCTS
Chain of 5-HT6 receptor (P50406 whole entry): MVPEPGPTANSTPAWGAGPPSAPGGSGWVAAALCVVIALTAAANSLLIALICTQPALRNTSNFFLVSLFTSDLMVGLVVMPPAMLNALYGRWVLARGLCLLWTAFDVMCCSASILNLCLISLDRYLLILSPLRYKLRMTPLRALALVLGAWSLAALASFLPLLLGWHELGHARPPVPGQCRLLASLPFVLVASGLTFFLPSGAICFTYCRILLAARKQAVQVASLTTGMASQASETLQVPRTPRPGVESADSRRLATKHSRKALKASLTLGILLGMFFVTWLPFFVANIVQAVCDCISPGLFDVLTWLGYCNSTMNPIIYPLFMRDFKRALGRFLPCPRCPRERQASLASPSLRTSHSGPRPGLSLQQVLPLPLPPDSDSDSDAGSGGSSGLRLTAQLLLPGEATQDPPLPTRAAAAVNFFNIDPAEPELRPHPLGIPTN
Chain of 5-HT2b receptor (P41595 whole entry): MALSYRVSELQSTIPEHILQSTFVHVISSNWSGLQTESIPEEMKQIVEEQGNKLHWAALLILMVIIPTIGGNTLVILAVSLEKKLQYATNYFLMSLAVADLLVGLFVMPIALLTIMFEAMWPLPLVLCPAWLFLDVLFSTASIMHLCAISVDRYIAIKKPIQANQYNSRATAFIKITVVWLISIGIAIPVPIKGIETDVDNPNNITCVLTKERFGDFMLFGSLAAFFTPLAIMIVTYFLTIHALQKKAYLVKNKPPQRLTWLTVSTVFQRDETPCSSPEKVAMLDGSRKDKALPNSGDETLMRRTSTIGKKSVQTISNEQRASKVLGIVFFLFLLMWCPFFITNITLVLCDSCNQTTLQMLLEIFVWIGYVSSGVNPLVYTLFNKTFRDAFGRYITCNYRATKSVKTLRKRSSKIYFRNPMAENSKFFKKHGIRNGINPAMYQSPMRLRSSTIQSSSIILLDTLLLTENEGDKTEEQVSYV
Chain of 5-HT4 receptor (Q13639 whole entry): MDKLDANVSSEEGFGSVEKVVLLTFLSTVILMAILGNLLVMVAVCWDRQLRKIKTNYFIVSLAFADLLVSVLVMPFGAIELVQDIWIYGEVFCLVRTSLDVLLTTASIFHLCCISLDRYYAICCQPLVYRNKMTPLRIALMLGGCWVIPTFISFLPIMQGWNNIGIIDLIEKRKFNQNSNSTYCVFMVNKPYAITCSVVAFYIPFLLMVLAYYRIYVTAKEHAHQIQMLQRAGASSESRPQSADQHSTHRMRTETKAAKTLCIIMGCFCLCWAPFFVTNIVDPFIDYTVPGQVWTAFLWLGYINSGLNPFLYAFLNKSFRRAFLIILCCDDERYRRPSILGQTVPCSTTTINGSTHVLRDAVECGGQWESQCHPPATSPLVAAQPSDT

SMILES | Ki (human 5-HT2C receptor [1]) [nM] | affinity for the 5-HT2c receptor (in words) (human 5-HT2C receptor [1]) | Ki (5-HT1a receptor) [nM] | Ki (5-HT1b receptor) [nM] | Ki (5-HT1d receptor) [nM] | Ki (5-HT1e receptor) [nM] | Ki (5-HT1f receptor) [nM] | Ki (5-HT2a receptor) [nM] | Ki (5-HT2b receptor) [nM] | Ki (5-HT4 receptor) [nM] | Ki (5-HT6 receptor) [nM] | EC50 (human 5-HT2C receptor [2]) [nM] | functional activity at the 5-HT2c receptor (in words) (human 5-HT2C receptor [2]) | Ki (5-HT1a receptor; 5-HT RECEPTOR 1a, read-out: Ki, 5-HT receptor 1a) [nM] | Ki (5-HT2a receptor; 5-HT RECEPTOR 2a, read-out: Ki, 5-HT receptor 2a) [nM] | Ki (5-HT2b receptor; 5-HT RECEPTOR 2b, read-out: Ki, 5-HT receptor 2b) [nM] | Ki (5-HT6 receptor; 5-HT RECEPTOR 6, read-out: Ki, 5-HT receptor 6) [nM] | EC50 (human 5-HT2C receptor [2]; agonist of 5-HT2c receptor, membranes of AV12 cells with human 5-HT2C, 5-HT defines maximal stimulation, read-out: EC50, [35S]-GTPγS assay) [nM]
C[C@H]1CN(c2ccc(C(F)(F)F)c3ccoc23)CCN1.O=C(O)/C=C/C(=O)O [Example 1, 1-(4-trifluoromethylbenzofur-7-yl)-3(S)-methylpiperazine fumarate] | 2.41 | found to have affinity | 134 | 260 | 147 | 633 | 163 | 37.6 | 177 | 977 | 225 | 8.5 | agonist | – | – | – | – | –
CC[C@H]1CN(c2ccc(C(F)(F)F)c3ccoc23)CCN1.O=C(O)/C=C/C(=O)O [Example 2, 1-(4-trifluoromethylbenzofur-7-yl)-3(S)-ethylpiperazine fumarate] | 0.77 | found to have affinity | – | 2940 | 726 | 1140 | 1000 | – | – | – | – | – | agonist | 261 | 27.8 | 177 | 607 | 7.8
